Structures are written as SMILES. In brackets after ≈: the same amount, converted by molar mass. Where two headings read alike, the source gives them in different places. Positions of bridges follow the written chain, without caps; N, C: chain ends. Non-standard residues stand in square brackets, D forms with d. Residues, ends and D or L forms follow the SMILES beside them. Phe(4-CF3) = N[C@@H](Cc1ccc(C(F)(F)F)cc1)C(=O)O; S5 = C=CCCC[C@](C)(N)C(=O)O; PEG1 = NCCOCCC(=O)O

This is an account of results in patent US20240174723A1, “STAPLED ANTIMICROBIAL PEPTIDES (STAMPS) AND USES THEREOF” (Lytica Therapeutics, Inc., priority 2021, published 2024).

For one data set, the system named is E. coli. Format: cell-based, Escherichia coli. In outline:
(§1)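 Minimum inhibitory concentrations of stapled peptides were determined by a microbroth dilution method derived from CLSI, using a final inoculum of 5×10^5 CFU/ml and 20-24 h incubation at 37 °C.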

The test system of the next data set is S. aureus. Format: cell-based, Staphylococcus aureus. Summed up: as §1
Data set [1] can be described thus: in vitro. The note with it: human. Format: cell-based. Summed up: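 RPTEC or HepG2 cells plated overnight, given fresh media, then serial StAMP dilutions (from 5 mg/mL water stock) or vehicle at 37 °C. Cytotoxicity read as LDH release into media, absorbance 490 nm; renal toxicity after 90 min, liver toxicity after 48 h incubation.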
In a further data set the test system is K. pneumoniae. The class given is cell-based, Klebsiella pneumoniae. Summed up:
as §1

A further data set deals with A. baumannii. The class given is cell-based, Acinetobacter baumannii. In outline:
as §1

A further data set concerns P. aeruginosa. Format: cell-based, Pseudomonas aeruginosa. Summed up: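 Broth microdilution adapted from CLSI in MHB or cation-adjusted MHB; log-phase P. aeruginosa at 5×10^5 CFU/ml final with serially diluted stapled peptides. Incubated 20-24 h at 37 °C; MIC is the lowest concentration without visible growth.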
Data set [2] in a line: in vitro. The note with it: human. Format: cell-based. In outline:
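HepG2 cells in EMEM with 10% FBS, allowed 4 h to attach, then exposed to serial dilutions of StAMPs (from a 5 mg/mL water stock) or vehicle. After 48 h at 37 °C, viability read by CellTiter-Glo luminescence.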
The source holds these as a separate data set.

Where [3] appears, read: Inhibitory Concentration at 50% Cytotoxicity (IC50) Human Liver Cells (HepG2).

For the compound `CC(C)[C@@H]1NC(=O)[C@@](C)(NC(=O)[C@H](C)NC(=O)[C@H](CCCCN)NC(=O)CNC(=O)[C@H](Cc2ccccc2)NC(=O)[C@H](CCCCN)NC(=O)[C@H](CCCCN)NC(=O)[C@H](CCCCN)NC(=O)[C@H](CO)NC(=O)[C@H](Cc2c[nH]cn2)NC(=O)[C@]2(C)CCCC=CCCC[C@](C)(NC(=O)CN)C(=O)NCC(=O)N[C@@H](CCCCN)C(=O)N[C@@H](Cc3ccccc3)C(=O)N2)CCCC=CCCC[C@@](C)(C(=O)N[C@@H](C)C(=O)N[C@@H](CCCCN)C(=O)N[C@@H](CCCCN)C(N)=O)NC(=O)[C@H](CCC(=O)O)NC(=O)[C@H](Cc2c[nH]c3ccccc23)NC1=O` (single isomer, unassigned) [compound 10], the “Minimum Inhibitory Concentration (MIC) E. coli” value with E. coli was 4 µg/mL. Also, in the data set on S. aureus, the “Minimum Inhibitory Concentration (MIC) S. aureus” value was found to be 32 µg/mL. The compound also had an IC50 at 90 min in the data set “in vitro [1]” of 110 µg/mL (≈ 41.3 µM). In the data set on K. pneumoniae, the “Minimum Inhibitory Concentration (MIC) K. pneumoniae” value worked out at 4 µg/mL. For the same compound, in the data set on A. baumannii, the “Minimum Inhibitory Concentration (MIC) A. baumannii” value came out at 2 µg/mL. The “Minimum Inhibitory Concentration (MIC) P. aeruginosa” value with P. aeruginosa stood at 4 µg/mL. Also, the IC50 at 48 hours in “in vitro [2]” (setting [3]) is 150 µg/mL (≈ 56.4 µM).

Turning to `CC(C)[C@@H]1NC(=O)[C@@](C)(NC(=O)[C@H](C)NC(=O)[C@H](CCCCN)NC(=O)CNC(=O)[C@H](Cc2ccccc2)NC(=O)[C@H](CCCCN)NC(=O)[C@H](CCCCN)NC(=O)[C@H](CCCCN)NC(=O)[C@H](CCCCN)NC(=O)[C@H](CCCCN)NC(=O)[C@]2(C)CCCC=CCCC[C@](C)(NC(=O)CN)C(=O)NCC(=O)N[C@@H](CCCCN)C(=O)N[C@@H](Cc3ccccc3)C(=O)N2)CCCC=CCCC[C@@](C)(C(=O)N[C@@H](C)C(=O)N[C@@H](CCCCN)C(=O)N[C@@H](CCCCN)C(=O)NCCOCCC(N)=O)NC(=O)[C@H](CCC(=O)O)NC(=O)CNC1=O` [compound 71] (H-G[S5]GKF[S5]KKKKKFGKA[S5]VGE[S5]AKK[PEG1]-NH2; staple 2-6, 16-20), in the data set on E. coli, the “Minimum Inhibitory Concentration (MIC) E. coli” value came to 2 µg/mL. The “Minimum Inhibitory Concentration (MIC) S. aureus” value with S. aureus was more than 64 µg/mL. This compound returned an IC50 at 90 min in “in vitro [1]” of 200 µg/mL (≈ 74.6 µM). In addition, in the data set with K. pneumoniae, the “Minimum Inhibitory Concentration (MIC) K. pneumoniae” value stood at 4 µg/mL. The “Minimum Inhibitory Concentration (MIC) A. baumannii” value with A. baumannii amounted to 2 µg/mL. Moreover, the “Minimum Inhibitory Concentration (MIC) P. aeruginosa” value in the data set on P. aeruginosa amounted to 4 µg/mL. Moreover, the IC50 at 48 hours in “in vitro [2]” (setting [3]) amounted to 247 µg/mL (≈ 92.2 µM).

Regarding `CC(C)[C@@H]1NC(=O)[C@@](C)(NC(=O)[C@H](C)NC(=O)[C@H](CCCCN)NC(=O)CNC(=O)[C@H](Cc2ccccc2)NC(=O)[C@H](CCCCN)NC(=O)[C@H](CCCCN)NC(=O)[C@H](CCCCN)NC(=O)[C@H](CO)NC(=O)[C@H](Cc2c[nH]cn2)NC(=O)[C@]2(C)CCCC=CCCC[C@](C)(NC(=O)CN)C(=O)NCC(=O)N[C@@H](CCCCN)C(=O)N[C@@H](Cc3ccccc3)C(=O)N2)CCCC=CCCC[C@@](C)(C(=O)N[C@@H](C)C(=O)N[C@@H](CCCCN)C(=O)N[C@@H](CCCCN)C(N)=O)NC(=O)[C@H](CCC(=O)O)NC(=O)[C@H]([C@@H](C)O)NC1=O` [compound 15] (H-G[S5]GKF[S5]HSKKKFGKA[S5]VTE[S5]AKK-NH2; staple 2-6, 16-20), the “Minimum Inhibitory Concentration (MIC) E. coli” value with E. coli came to 6 µg/mL. The “Minimum Inhibitory Concentration (MIC) S. aureus” value in the data set with S. aureus was more than 64 µg/mL. The IC50 at 90 min in “in vitro [1]” is more than 200 µg/mL. Further, the “Minimum Inhibitory Concentration (MIC) K. pneumoniae” value in the data set with K. pneumoniae was 16 µg/mL. Besides, the “Minimum Inhibitory Concentration (MIC) A. baumannii” value in the data set with A. baumannii amounted to 2 µg/mL. Further, the “Minimum Inhibitory Concentration (MIC) P. aeruginosa” value in the data set with P. aeruginosa turned out to be 8 µg/mL. In addition, in “in vitro [2]” (setting [3]), the IC50 at 48 hours was more than 200 µg/mL.

With `CC(C)[C@@H]1NC(=O)[C@@](C)(NC(=O)[C@H](C)NC(=O)[C@H](CCCCN)NC(=O)CNC(=O)[C@H](Cc2ccccc2)NC(=O)[C@H](CCCCN)NC(=O)[C@H](CCCCN)NC(=O)[C@H](CCCCN)NC(=O)[C@H](CO)NC(=O)[C@H](Cc2c[nH]cn2)NC(=O)[C@]2(C)CCCC=CCCC[C@](C)(NC(=O)CN)C(=O)NCC(=O)N[C@@H](CCCCN)C(=O)N[C@@H](Cc3c[nH]c4ccccc34)C(=O)N2)CCCC=CCCC[C@@](C)(C(=O)N[C@@H](C)C(=O)N[C@@H](CCCCN)C(=O)N[C@@H](CCCCN)C(N)=O)NC(=O)[C@H](CCC(=O)O)NC(=O)CNC1=O` [compound 59] (H-G[S5]GKW[S5]HSKKKFGKA[S5]VGE[S5]AKK-NH2; staple 2-6, 16-20), in the data set on E. coli, the “Minimum Inhibitory Concentration (MIC) E. coli” value came out at 4 µg/mL. Further, the “Minimum Inhibitory Concentration (MIC) S. aureus” value in the data set with S. aureus was more than 64 µg/mL. In “in vitro [1]”, this compound gave an IC50 at 90 min of more than 200 µg/mL. In addition, in the data set with K. pneumoniae, the “Minimum Inhibitory Concentration (MIC) K. pneumoniae” value is 64 µg/mL. Also, in the data set with A. baumannii, the “Minimum Inhibitory Concentration (MIC) A. baumannii” value is 4 µg/mL. Further, in the data set on P. aeruginosa, the “Minimum Inhibitory Concentration (MIC) P. aeruginosa” value was 8 µg/mL. In the data set “in vitro [2]” (setting [3]), this compound displayed an IC50 at 48 hours of more than 200 µg/mL.

In the case of `CC(C)[C@@H]1NC(=O)[C@@](C)(NC(=O)[C@H](C)NC(=O)[C@H](CCCCN)NC(=O)CNC(=O)[C@H](Cc2ccccc2)NC(=O)[C@H](CCCCN)NC(=O)[C@H](CCCCN)NC(=O)[C@H](CCCCN)NC(=O)[C@H](CO)NC(=O)[C@H](Cc2c[nH]cn2)NC(=O)[C@]2(C)CCCC=CCCC[C@](C)(NC(=O)CN)C(=O)NCC(=O)N[C@@H](CCCCN)C(=O)N[C@@H](Cc3ccccc3)C(=O)N2)CCCC=CCCC[C@@](C)(C(=O)N[C@@H](C)C(=O)N[C@@H](CCCCN)C(=O)N[C@@H](CCCCN)C(N)=O)NC(=O)[C@H](CCC(=O)O)NC(=O)[C@H](Cc2ccc(O)cc2)NC1=O` [compound 13] (H-G[S5]GKF[S5]HSKKKFGKA[S5]VYE[S5]AKK-NH2; staple 2-6, 16-20), the “Minimum Inhibitory Concentration (MIC) E. coli” value in the data set on E. coli is 3 µg/mL. Moreover, in the data set on S. aureus, the “Minimum Inhibitory Concentration (MIC) S. aureus” value is more than 64 µg/mL. This compound also showed an IC50 at 90 min in the data set “in vitro [1]” of more than 200 µg/mL. In the data set with K. pneumoniae, the “Minimum Inhibitory Concentration (MIC) K. pneumoniae” value came out at 8 µg/mL. Also, in the data set on A. baumannii, the “Minimum Inhibitory Concentration (MIC) A. baumannii” value turned out to be 2 µg/mL. The “Minimum Inhibitory Concentration (MIC) P. aeruginosa” value in the data set on P. aeruginosa was 4 µg/mL. The same compound displayed an IC50 at 48 hours in “in vitro [2]” (setting [3]) of more than 200 µg/mL.

As for `CC(C)[C@@H]1NC(=O)[C@@](C)(NC(=O)[C@H](C)NC(=O)[C@H](CCCCN)NC(=O)CNC(=O)[C@H](Cc2ccccc2)NC(=O)[C@H](CCCCN)NC(=O)[C@H](CCCCN)NC(=O)[C@H](CCCCN)NC(=O)[C@H](CCCCN)NC(=O)[C@H](CCCCN)NC(=O)[C@]2(C)CCCC=CCCC[C@](C)(NC(=O)CN)C(=O)NCC(=O)N[C@@H](CCCCN)C(=O)N[C@@H](Cc3ccccc3)C(=O)N2)CCCC=CCCC[C@@](C)(C(=O)N[C@@H](C)C(=O)N[C@@H](CCCCN)C(=O)N[C@@H](CCCCN)C(=O)NCC(=O)NCC(=O)N[C@@H](CCC(=O)O)C(N)=O)NC(=O)[C@H](CCC(=O)O)NC(=O)[C@H](Cc2ccc(C(F)(F)F)cc2)NC1=O` [compound 35] (H-G[S5]GKF[S5]KKKKKFGKA[S5]V[Phe(4-CF3)]E[S5]AKKGGE-NH2; staple 2-6, 16-20), in the data set with E. coli, the “Minimum Inhibitory Concentration (MIC) E. coli” value stood at 2 µg/mL. Besides, the “Minimum Inhibitory Concentration (MIC) S. aureus” value with S. aureus worked out at 64 µg/mL. In the data set “in vitro [1]”, the IC50 at 90 min is approximately 200 µg/mL (≈ 67.4 µM). Also, the “Minimum Inhibitory Concentration (MIC) K. pneumoniae” value in the data set with K. pneumoniae turned out to be 2 µg/mL. For the same compound, the “Minimum Inhibitory Concentration (MIC) A. baumannii” value in the data set with A. baumannii was determined as 2 µg/mL. Further, in the data set with P. aeruginosa, the “Minimum Inhibitory Concentration (MIC) P. aeruginosa” value was 2 µg/mL. In “in vitro [2]” (setting [3]), this compound yielded an IC50 at 48 hours of more than 200 µg/mL.

For the compound `CC(C)[C@@H]1NC(=O)[C@@](C)(NC(=O)[C@H](C)NC(=O)[C@H](CCCCN)NC(=O)CNC(=O)[C@H](Cc2ccccc2)NC(=O)[C@H](CCCCN)NC(=O)[C@H](CCCCN)NC(=O)[C@H](CCCCN)NC(=O)[C@H](CCCCN)NC(=O)[C@H](CCCCN)NC(=O)[C@]2(C)CCCC=CCCC[C@](C)(NC(=O)CN)C(=O)NCC(=O)N[C@@H](CCCCN)C(=O)N[C@@H](Cc3ccccc3)C(=O)N2)CCCC=CCCC[C@@](C)(C(=O)N[C@@H](C)C(=O)N[C@@H](CCCCN)C(=O)N[C@@H](CCCCN)C(=O)NCC(=O)NCC(=O)N[C@@H](CCC(=O)O)C(N)=O)NC(=O)[C@H](CCC(=O)O)NC(=O)[C@H](Cc2ccccc2)NC1=O` [compound 33] (H-G[S5]GKF[S5]KKKKKFGKA[S5]VFE[S5]AKKGGE-NH2; staple 2-6, 16-20), in the data set with E. coli, the “Minimum Inhibitory Concentration (MIC) E. coli” value was 2 µg/mL. For the same compound, in the data set on S. aureus, the “Minimum Inhibitory Concentration (MIC) S. aureus” value was more than 64 µg/mL. Besides, in “in vitro [1]” (90 minutes of incubation, read-out: Inhibitory Concentration at 50% Cytotoxicity (IC50) Human Renal Proximal Tubule Epithelial Cells (RPTEC)), the IC50 at 90 min was approximately 200 µg/mL (≈ 69 µM). Also, the “Minimum Inhibitory Concentration (MIC) K. pneumoniae” value in the data set on K. pneumoniae was determined as 4 µg/mL. The “Minimum Inhibitory Concentration (MIC) A. baumannii” value with A. baumannii is 2 µg/mL. In addition, the “Minimum Inhibitory Concentration (MIC) P. aeruginosa” value in the data set with P. aeruginosa came to 4 µg/mL. In the data set “in vitro [2]” (48 hours of incubation, read-out: Inhibitory Concentration at 50% Cytotoxicity (IC50) Human Liver Cells (HepG2)), the IC50 at 48 hours is more than 200 µg/mL.
